# Experimental data published in patent publication US8168679B2, “Salts of Tramadol and Naproxen and their crystal forms in the treatment of pain” (Laboratorios del Dr. Esteve, S.A., priority 2007, dated 2012).
# Structures can show the parent of a compound that is named as a salt.
# What was measured:
# [1] = Determination of the hygroscopicity of the crystalline salts (weight variation and Karl Fischer in humidity chamber); assay type: physicochemical; conditions: for KF (t = 0): Karl Fischer value at the beginning of the study; for KF (t = 6 days): Karl Fischer value at the end of the study, 6 days in humidity chamber; for hygroscopicity according to the scale: class by % incorporation of water; for Δ % weigth 24 h / Δ % weigth 48 h / Δ % weigth 6 days: humidity chamber, 64% relative humidity, 25±2° C.
# From the text: The objective was to measure the hygroscopicity of the salts of the present invention, and comparing it with the one of the known salt of each counter part of the salts. The increasing of the weight will be measured in order to evaluate the incorporation of water in the samples, together with the Karl Fischer factor.
# According to “Technical guide for the elaboration of monographs” special issue PharmaEuropa, 3rd ed., December 1999, the hygroscopicity is defined based on the augmentation of weight after 24 hours of exposition to 80% of relative humidity at 25° C. The scale is the following:
# Methods: • Preparation of the Humidity chamber: A supersaturated solution of sodium nitrite (45 g/50 ml) is prepared and introduced in a humidification chamber (samplaterecord). The chamber is maintained at a temperature of 25±2° C. during 24 hours before use, and humidity is controlled each day. […] 102.2 mg of sodium naproxen. • The samples are introduced in the conditioned humidity chamber, and the weight is controlled after 24 hours, 48 hours, and 6 days, till an equilibrium is reached (2 successive control with a variation of weight less than 0.2 mg). • The Karl Fischer is also determined (using a Methrom 756 KF) at the beginning and at the end of the study.
# The variation of the weight is controlled and the following percentage is calculated: Δ% weigth=(Pn−P1)/P1×100 wherein: P1 is the initial weight, Pn is the weight measured for the sample.
# [2] = system: TNBS-induced colonic hypersensitivity; experiment: TNBS-induced colonic hypersensitivity (visceral pain model, colonic distension); assay type: in vivo, Male Sprague-Dawley rats; conditions: rats, day 7 after TNBS, 5 mg/kg orally, FIG. 12
# Experimental: The effect of the salts of the present invention on pain is measured in a model of visceral pain well known in the art: the TNBS-induced colonic hypersensitivity. In this model, the injection of trinitrobenzene sulfonic acid (TNBS) into the proximal colon provoke chronic colonic hypersensitivity, measured in conscious rats by a decreased pain threshold in response to colonic distension.
# The animals are Male Sprague-Dawley rats (360-400 g, France). They were housed in a temperature (19.5° C. 24.5° C.) and relative humidity (45%-65%) controlled room with a 12 h—light/dark cycle, with ad libitum access to standard pelleted laboratory chow and water throughout the study.
# Fasted (24 hours) animals were undergoing surgery for administration of TNBS (50 mg/kg) into the proximal part of the colon. […]
# Day 7 after TNBS injection: Compounds were administered and the colonic hypersensitivity due to TNBS-induced colonic inflammation was measured before the treatment, and at t=20, 45, 90 and 120 min after treatment. […]
# The 95% confidence intervals of each of the arithmetic means were also calculated.
# Statistical significance between the treated groups and the vehicle-treated group was determined by a two-way repeated measures ANOVA followed, when F-value is significant, by an appropriate post-hoc comparison (Bonferroni's test) using SigmaStat software.
Molecule,KF (t = 0) [1],KF (t = 6 days) [1],hygroscopicity according to the scale [1],Δ % weigth 24 h [1],Δ % weigth 48 h [1],Δ % weigth 6 days [1],colonic threshold (pain threshold to colonic distension) ([2]; 20-120 min after treatment),anti-hypersensitive effect compared with the corresponding combination (Combo-02) [2]
COc1cccc(C2(O)CCCCC2CN(C)C)c1 (centres unmarked) [tramadol hydrochloride],0.45,0.23,slightly hygroscopic,0.19%,0.26%,0.18%,,
"(R,R)-Tramadol-(S)-Naproxene Salt [Example 2]",,,,,,,nearly recovering the same level of colonic threshold than the naive animal,superior effect
COc1ccc2cc([C@H](C)C(=O)[O-])ccc2c1.[Na+] [sodium naproxen],1.04,12.65,hygroscopic,14.39%,14.39%,14.3%,,
